Measurements from US12201593B2, “Oral pharmaceutical formulations of bitter compounds for asthma” (Aardvark Therapeutics Inc., priority 2018, dated 2025).

What was measured:
TAS2R subtypes = conditions: cited from earlier work
[1] = tested on: primary human smooth muscle (HASM) cells; assay: FLECS bronchodilator assay: single-cell contractility of HASM cells after bradykinin/carbachol-induced contraction; type: cell-based; conditions: for effect on contraction relative to control (FIG. 2): test agent 100 μM alone, stimulating agents BK and carbachol (10 μM), negative control 0.1% DMSO; for relaxation of stimulated cells: HASM from asthmatic and non-asthmatic humans, stimulated to contract with bradykinin
From the text: FIGS. 1A, 1B, and 1C show the bronchodilator assay workflow with a […] of FLECS. Each well holds ˜1,200 micro-patterns for sensing force-generation by single cells. […] The two cases represent the positive and negative controls for the assay.
An in vitro model using human airway smooth muscle cells (HASM) from both asthmatic patients and “normal” non-asthmatic humans was stimulated to contract with bradykinin.
The assay investigated bronchodilatation properties of bitter taste agonists, individually and in combination, administered to primary human smooth muscle (HASM) cells after inducing contraction with asthmatic agent bradykinin. HASM cells were obtained from asthmatic patients and “normal” or non-asthmatic patients. Each of 4 primary HASM cell lines (2 from healthy donors; 2 from asthmatic donors) were seeded on FLECSplates and were stimulated to contract via exposure to bradykinin (BK) or carbachol. […] Accordingly, at 15 minutes following exposure to BK, the cells were treated with a denatonium salt or 3-CQL for Example 1, or combinations thereof, as well as positive controls and negative controls. The cells were imaged at 5 minute intervals beginning with a baseline reading, out to 45 minutes. The measurement was attenuation of population wide BK-induced contractility by treatment of a test compound (or combination) relative to controls.
Each well holds ˜1,200 micro-patterns for sensing force-generation by single cells. […] The two cases represent the positive and negative controls for the assay.

CC[N+](CC)(CC(=O)Nc1c(C)cccc1C)Cc1ccccc1 [DB, phenylmethyl-[2-[(2,6-dimethylphenyl)amino]-2-oxoethyl]-diethylammonium benzoate]
number of TAS2R subtypes activated (TAS2R subtypes): 8 | effect on contraction relative to control (FIG. 2) [1]: relaxing effect

CC[N+](CC)(CC(=O)Nc1c(C)cccc1C)Cc1ccccc1 [DS, denatonium saccharide]
relaxation of stimulated cells [1]: did relax

COc1ccc(CC(C)NCC(O)c2ccc(O)c(NC=O)c2)cc1 (stereo not drawn) [formoterol, Formoterol]
potency of formoterol alone (FIG. 2) ([1]; formoterol 1 μM, concentration reduced 50×): not as potent as previous experiments

O=C(/C=C/c1ccc(O)c(O)c1)O[C@@H]1C[C@](O)(C(=O)O)C[C@@H](O)[C@H]1O [3-CQL, 3-caffeoylquinic acid]
relaxation of stimulated cells [1]: did not relax | effect on contraction relative to control (FIG. 2) [1]: increase contraction relative to control
